Columns and labels:
[1] = test system: platelet aggregation induced by arachidonic acid; experiment: Inhibitory effect on platelet aggregation (arachidonic acid-induced, rabbit platelet-rich plasma); type: cell-based; conditions: arachidonic acid 137 μ moles/liter
Description: (1) Measurement of inhibitory effect on platelet aggregation:
Blood was drawn from ether-anesthetized rabbits (weighing 2.5 to 3.5 kg) through a canule inserted into the carotid artery. Immediately then, a 3.8% aqueous solution of sodium citrate was added to the collected blood in a volume of 1/10 of the volume of the blood after addition of the aqueous solution citrate solution. The blood was then centrifuged for 15 minutes at 150 G at room temperature to obtain plasma having platelet suspended therein as a supernatant.
An aliquot of 0.435 ml of platelet-rich plasma was put into the cell of an aggregometer adjusted to a temperature of 37° C. and a stirring speed of 1200 rpm. […] An aqueous solution of arachidonic acid as a platelet aggregation inducing agent (the final concentration of arachidonic acid is 137μ moles/liter) was added, and with stirring, changes in absorbance were measured for 10 minutes.
The effect of platelet aggregation inhibition of the test compound was calculated as follows: [formula] ΔC: a change in absorbance in a control run, ΔS: a change in absorbance when the test compound was added.
In the control run, 2.5 μl of dimethyl sulfoxide was added instead of the test compound.

[2] = test system: blood pressure (average arterial pressure); experiment: Blood pressure lowering activity in anesthetized rabbits; type: in vivo, rabbit; conditions: average of at least three rabbits
[3] = final concentration 3 μ moles/liter
[4] = final concentration 10 μ moles/liter
[5] = final concentration 30 μ moles/liter
[6] = final concentration 100 μ moles/liter

## CCOC(=O)c1c(C)cc2cnc(-c3ccccc3Cl)nc2c1C [Example 1, 2-(o-chlorophenyl)-7-ethoxycarbonyl-6,8-dimethylquinazoline]
[1]; [3]
  inhibition of platelet aggregation: 100%
[1]; [4]
  inhibition of platelet aggregation: 100%
[1]; [5]
  inhibition of platelet aggregation: 100%
[2]; 10 μg/kg i.v.
  Blood pressure lowering effect: 12 mmHg
[2]; 30 μg/kg i.v.
  Blood pressure lowering effect: 22 mmHg
[2]; 100 μg/kg i.v.
  Blood pressure lowering effect: 49 mmHg

## CCOC(=O)c1c(C)cc2cnc(-c3ccccc3)nc2c1C [Example 2, 2-phenyl-7-ethoxycarbonyl-6,8-dimethylquinazoline]
[1]; [4]
  inhibition of platelet aggregation: 100%
[1]; [5]
  inhibition of platelet aggregation: 100%
[2]; 100 μg/kg i.v.
  Blood pressure lowering effect: 15 mmHg

## CCOC(=O)c1c(C)cc2cnc(-c3ccccc3C)nc2c1C [Example 3, 2-(o-methylphenyl)-7-ethoxycarbonyl-6,8-dimethylquinazoline]
[1]; [4]
  inhibition of platelet aggregation: 100%
[1]; [5]
  inhibition of platelet aggregation: 100%
[2]; 100 μg/kg i.v.
  Blood pressure lowering effect: 20 mmHg

## CCOC(=O)c1c(C)cc2cnc(-c3ccccc3F)nc2c1C [Example 4, 2-(o-fluorophenyl)-7-ethoxycarbonyl-6,8-dimethylquinazoline]
[1]; final concentration 1 μ moles/liter
  inhibition of platelet aggregation: 100%
[1]; [3]
  inhibition of platelet aggregation: 100%
[2]; 100 μg/kg i.v.
  Blood pressure lowering effect: 32 mmHg

## CCOC(=O)c1c(C)cc2cnc(-c3ccccc3C(F)(F)F)nc2c1C [Example 5, 2-(o-trifluoromethylphenyl)-7-ethoxycarbonyl-6,8-dimethylquinazoline]
[1]; [6]
  inhibition of platelet aggregation: 100%
[2]; 100 μg/kg i.v.
  Blood pressure lowering effect: 25 mmHg

## CCOC(=O)c1c(C)cc2cnc(C)nc2c1C [Example 6, 2-methyl-7-ethoxycarbonyl-6,8-dimethylquinazoline]
[1]; [6]
  inhibition of platelet aggregation: 100%
[2]; 100 μg/kg i.v.
  Blood pressure lowering effect: 12 mmHg

## CCOC(=O)c1c(C)cc2cnc(Cc3ccccc3)nc2c1C [Example 7, 2-benzyl-7-ethoxycarbonyl-6,8-dimethylquinazoline]
[1]; [6]
  inhibition of platelet aggregation: 100%
[2]; 100 μg/kg i.v.
  Blood pressure lowering effect: 18 mmHg
